Laboratory results from publication PMC12680189, “Aotaphenazine, a rare hydrophenazine, targets topoisomerase II with anticancer efficacy: In silico to in vitro evidence” (PLOS One, 2025).

Molecular target: Topoisomerase II (Topo II)
Test: ELISA-based Topo II inhibition assay kit (Abcam), recombinant human enzyme, colorimetric
Format: biochemical

O=c1oc(=O)c2c(ccc3nc4ccccc4[nH]c32)c1-c1ccccc1 [aotaphenazine]
IC50: 45 nM
